Patent US9067908B2, “Polyphenolic bioprecursors” (RHODIA CHIMIE, priority 2005, dated 2015)
Entries after “also recorded” stand apart in the source; their conditions may differ. Read-outs that look alike come from different tables or passages of the source.

Experiments:
[1] = test system: Stratum corneum enzymatic extract; assay: Bio-hydrolysis with the cutaneous enzymes obtained by tape stripping; conditions: for Bio-hydrolysis Rate (%): 35° C.
Description: (§1) Samples of Stratum corneum are taken with surgical sparadrap (type Blenderm 3M Health Care, St. Paul, Minn., USA). The buffers used in the bio-hydrolysis trials are: 50 mM Tris(tris[hydroxymethyl]aminomethane) pH 7.3 and pH 8; 50 mM Na-acetate pH 5.5; 50 mM MES (2-[N-morpholino]-ethanesulphonic) acid pH 6 and 50 mM phosphate pH 6.5.
(§2) The precursors are solubilised in acetonitrile at a concentration of 1 g/l. For the bio-hydrolysis trials 50 μl of substrate and 50 μl of acetonitrile in 900 μl of enzymatic extract in the buffer at a chosen pH are added. The reaction mixtures are incubated at 35° C. without stirring and shielded from the light. The evolution of the bio-hydrolysis is determined by HPLC (high-performance liquid chromatography) with reverse phase polarity. The controls are effected in the same solutions without enzymatic extracts of skin, in order to determine the chemical stability of the products.

[2] = test system: Stratum corneum enzymatic extract
Description: as §1, §2

[3] = Solubility of precursor in the bio-hydrolysis medium; assay type: physicochemical
Description: Resveratrol trilipoate is obtained via lipoic acid chloride prepared in situ under argon at ambient temperature in dichloromethane. The acylation reaction leads to a mixture of the products of coupling (phenolic and recorcinic monolipoates, dilipoates and trilipoates). The trilipoates were obtained after chromatography on silica. The product was not characterised for reasons of insolubility. For the same reasons it cannot be bio-hydrolysed (see Table 1).

Row | SMILES | Active substance(s) released by bio-hydrolyse: A [1] | Active substance(s) released by bio-hydrolyse: B [1] | Active substance(s) released by bio-hydrolyse: Polyphenol (PP) [1] | Active substance(s) released by bio-hydrolyse: Polyphenol (PP) [2] | Bio-hydrolysis Rate (%) [2] | further results
1 | CC(=O)Oc1cc(OC(=O)CCC(=O)Oc2c(C)c(C)c3c(c2C)CCC(C)(CCCC(C)CCCC(C)CCCC(C)C)O3)c2c(=O)cc(-c3ccc(OC(C)=O)c(OC(C)=O)c3)oc2c1 (stereo not drawn) [Lut(Ac)3-succinate-Vit E, 7-acetoxy-2-(3,4-diacetoxyphenyl)-4-oxo-4H-chromen-5-yl 2,5,7,8-tetramethyl-2-(4,8,12-trimethyltridecyl)-3,4-dihydro-2H-chromen-6-yl succinate] | Acetate +; also recorded: Succinate | Vitamin E | Luteolin |  |  | Bio-hydrolysis Rate (%) ([1]; bio-hydrolysis time 5 h): 70%
2 | CCCCCC(=O)Oc1ccc(/C=C/c2cc(OC(C)=O)cc(OC(C)=O)c2)cc1 [Res(Ac)2-caproate, 3,5-resveratrol diacetate-4′-caproate] |  |  |  | Resveratrol | 95% | 
3 | COc1cc(/C=C/C(=O)Oc2ccc(/C=C/c3cc(OC(C)=O)cc(OC(C)=O)c3)cc2)ccc1OC(C)=O [Res(Ac)2-ferulate(Ac), (E)-4-((E)-3,5-diacetoxystyryl)phenyl 3-(4-acetoxy-3-methoxyphenyl)acrylate] | Acetate | Ferulic acid | Resveratrol |  |  | Bio-hydrolysis Rate (%) ([1]; bio-hydrolysis time 6.5 h): 71%
4 | CC(=O)Oc1cc(/C=C/c2ccc(OC(=O)CCCCC3CCSS3)cc2)cc(OC(C)=O)c1 (stereo not drawn) [Res(Ac)2-lipoate, (E)-4-(3,5-diacetoxystyryl)phenyl-5-(1,2-dithiolan-3-yl)pentanoate] | Acetate | Lipoate | lipoic acid; also recorded: Resveratrol + |  |  | Bio-hydrolysis Rate (%) ([1]; bio-hydrolysis time 48 h): 87%
5 | CCCCCC(=O)Oc1ccc(/C=C/c2cc(OC(=O)CCCCC)cc(OC(=O)CCCCC)c2)cc1 [Res(caproate)3, 3,5,4′-resveratrol tricaproate, reference compound] |  |  |  | Resveratrol | 98% | Active substance(s) released by bio-hydrolyse: A [2]: Caproate
6 | O=C(CCCCC1CCSS1)Oc1ccc(/C=C/c2cc(OC(=O)CCCCC3CCSS3)cc(OC(=O)CCCCC3CCSS3)c2)cc1 (stereo not drawn) [Res(lipoate)3, 3,5,4′-resveratrol trilipoate] |  |  |  |  |  | Solubility of precursor in the medium [3]: insolubility
